Test results reported in ChEMBL document CHEMBL3046001, “4-Thiazolidinone and 1-thia-3,4,9-triaza fluorene conjugates: synthesis, characterization and antimicrobial screening” (2013).
Converted amounts (≈) assume the structure as drawn. The source made the active and inactive calls. The rule behind the calls is not given here.

What was measured:
Penicillium chrysogenum [1] = assay: Antifungal activity against Penicillium chrysogenum MTCC 161 assessed as growth inhibition after 24 hr by tube dilution method; assay type: functional; conditions: MTCC 161, 24 h
Pseudomonas fluorescens [2] = assay: Antibacterial activity against Pseudomonas fluorescens MTCC 2421 assessed as growth inhibition after 24 hr by tube dilution method; assay type: functional; conditions: MTCC 2421, 24 h
Escherichia coli [3] = assay: Antibacterial activity against Escherichia coli MTCC 1573 assessed as growth inhibition after 24 hr by tube dilution method; assay type: functional; conditions: MTCC 1573, 24 h
Bacillus pumilus [4] = assay: Antibacterial activity against Bacillus pumilus MTCC 1456 assessed as growth inhibition after 24 hr by tube dilution method; assay type: functional; conditions: MTCC 1456, 24 h
Bacillus subtilis [5] = assay: Antibacterial activity against Bacillus subtilis MTCC 441 assessed as growth inhibition after 24 hr by tube dilution method; assay type: functional; conditions: MTCC 441, 24 h
Bacillus subtilis [6] = assay: Antibacterial activity against Bacillus subtilis MTCC 441 assessed as growth inhibition at 1250 ug/mL after 48 hr by agar diffusion method; assay type: functional; conditions: MTCC 441, 48 h, read-out: DIZ
Bacillus subtilis [7] = assay: Antibacterial activity against Bacillus subtilis MTCC 441 assessed as growth inhibition at 1000 ug/mL after 48 hr by agar diffusion method; assay type: functional; conditions: MTCC 441, 48 h, read-out: DIZ
Bacillus subtilis [8] = assay: Antibacterial activity against Bacillus subtilis MTCC 441 assessed as growth inhibition at 750 ug/mL after 48 hr by agar diffusion method; assay type: functional; conditions: MTCC 441, 48 h, read-out: DIZ
Bacillus subtilis [9] = assay: Antibacterial activity against Bacillus subtilis MTCC 441 assessed as growth inhibition at 500 ug/mL after 48 hr by agar diffusion method; assay type: functional; conditions: MTCC 441, 48 h, read-out: DIZ
Penicillium chrysogenum [10] = assay: Antifungal activity against Penicillium chrysogenum MTCC 161 assessed as growth inhibition at 1000 ug/mL after 48 hr by agar diffusion method; assay type: functional; conditions: MTCC 161, 48 h, read-out: DIZ
Penicillium chrysogenum [11] = assay: Antifungal activity against Penicillium chrysogenum MTCC 161 assessed as growth inhibition at 750 ug/mL after 48 hr by agar diffusion method; assay type: functional; conditions: MTCC 161, 48 h, read-out: DIZ
Penicillium chrysogenum [12] = assay: Antifungal activity against Penicillium chrysogenum MTCC 161 assessed as growth inhibition at 500 ug/mL after 48 hr by agar diffusion method; assay type: functional; conditions: MTCC 161, 48 h, read-out: DIZ
Penicillium chrysogenum [13] = assay: Antifungal activity against Penicillium chrysogenum MTCC 161 assessed as growth inhibition at 250 ug/mL after 48 hr by agar diffusion method; assay type: functional; conditions: MTCC 161, 48 h, read-out: DIZ
Penicillium chrysogenum [14] = assay: Antifungal activity against Penicillium chrysogenum MTCC 161 assessed as growth inhibition at 100 ug/mL after 48 hr by agar diffusion method; assay type: functional, organism-based
Aspergillus niger [15] = assay: Antifungal activity against Aspergillus niger MTCC 2546 assessed as growth inhibition at 1250 ug/mL after 48 hr by agar diffusion method; assay type: functional; conditions: MTCC 2546, 48 h, read-out: DIZ
Aspergillus niger [16] = assay: Antifungal activity against Aspergillus niger MTCC 2546 assessed as growth inhibition at 1000 ug/mL after 48 hr by agar diffusion method; assay type: functional; conditions: MTCC 2546, 48 h, read-out: DIZ
Aspergillus niger [17] = assay: Antifungal activity against Aspergillus niger MTCC 2546 assessed as growth inhibition at 250 ug/mL after 48 hr by agar diffusion method; assay type: functional
Pseudomonas fluorescens [18] = assay: Antibacterial activity against Pseudomonas fluorescens MTCC 2421 assessed as growth inhibition at 1250 ug/mL after 48 hr by agar diffusion method; assay type: functional; conditions: MTCC 2421, 48 h, read-out: DIZ
Pseudomonas fluorescens [19] = assay: Antibacterial activity against Pseudomonas fluorescens MTCC 2421 assessed as growth inhibition at 1000 ug/mL after 48 hr by agar diffusion method; assay type: functional; conditions: MTCC 2421, 48 h, read-out: DIZ
Pseudomonas fluorescens [20] = assay: Antibacterial activity against Pseudomonas fluorescens MTCC 2421 assessed as growth inhibition at 750 ug/mL after 48 hr by agar diffusion method; assay type: functional; conditions: MTCC 2421, 48 h, read-out: DIZ
Pseudomonas fluorescens [21] = assay: Antibacterial activity against Pseudomonas fluorescens MTCC 2421 assessed as growth inhibition at 500 ug/mL after 48 hr by agar diffusion method; assay type: functional; conditions: MTCC 2421, 48 h, read-out: DIZ
Micrococcus luteus [22] = assay: Antibacterial activity against Micrococcus luteus MTCC 1538 assessed as growth inhibition at 500 ug/mL after 48 hr by agar diffusion method; assay type: functional; conditions: MTCC 1538, 48 h, read-out: DIZ
Micrococcus luteus [23] = assay: Antibacterial activity against Micrococcus luteus MTCC 1538 assessed as growth inhibition at 250 ug/mL after 48 hr by agar diffusion method; assay type: functional
Micrococcus luteus [24] = assay: Antibacterial activity against Micrococcus luteus MTCC 1538 assessed as growth inhibition at 100 ug/mL after 48 hr by agar diffusion method; assay type: functional
Bacillus pumilus [25] = assay: Antibacterial activity against Bacillus pumilus MTCC 1456 assessed as growth inhibition at 1250 ug/mL after 48 hr by agar diffusion method; assay type: functional; conditions: MTCC 1456, 48 h, read-out: DIZ
Bacillus pumilus [26] = assay: Antibacterial activity against Bacillus pumilus MTCC 1456 assessed as growth inhibition at 500 ug/mL after 48 hr by agar diffusion method; assay type: functional; conditions: MTCC 1456, 48 h, read-out: DIZ
Bacillus pumilus [27] = assay: Antibacterial activity against Bacillus pumilus MTCC 1456 assessed as growth inhibition at 250 ug/mL after 48 hr by agar diffusion method; assay type: functional; conditions: MTCC 1456, 48 h, read-out: DIZ
Staphylococcus aureus [28] = assay: Antibacterial activity against Staphylococcus aureus MTCC 1430 assessed as growth inhibition at 1000 ug/mL after 48 hr by agar diffusion method; assay type: functional; conditions: MTCC 1430, 48 h, read-out: DIZ
Staphylococcus aureus [29] = assay: Antibacterial activity against Staphylococcus aureus MTCC 1430 assessed as growth inhibition at 750 ug/mL after 48 hr by agar diffusion method; assay type: functional; conditions: MTCC 1430, 48 h, read-out: DIZ
Staphylococcus aureus [30] = assay: Antibacterial activity against Staphylococcus aureus MTCC 1430 assessed as growth inhibition at 500 ug/mL after 48 hr by agar diffusion method; assay type: functional; conditions: MTCC 1430, 48 h, read-out: DIZ
Staphylococcus aureus [31] = assay: Antibacterial activity against Staphylococcus aureus MTCC 1430 assessed as growth inhibition at 100 ug/mL after 48 hr by agar diffusion method; assay type: functional, organism-based
Pseudomonas aeruginosa [32] = assay: Antibacterial activity against Pseudomonas aeruginosa MTCC 424 assessed as growth inhibition at 250 ug/mL after 48 hr by agar diffusion method; assay type: functional; conditions: MTCC 424, 48 h, read-out: DIZ
Pseudomonas aeruginosa [33] = assay: Antibacterial activity against Pseudomonas aeruginosa MTCC 424 assessed as growth inhibition at 100 ug/mL after 48 hr by agar diffusion method; assay type: functional; conditions: MTCC 424, 48 h, read-out: DIZ
Micrococcus luteus [34] = assay: Antibacterial activity against Micrococcus luteus MTCC 1538 assessed as growth inhibition at 1250 ug/mL after 48 hr by agar diffusion method; assay type: functional; conditions: MTCC 1538, 48 h, read-out: DIZ
Micrococcus luteus [35] = assay: Antibacterial activity against Micrococcus luteus MTCC 1538 assessed as growth inhibition at 1000 ug/mL after 48 hr by agar diffusion method; assay type: functional; conditions: MTCC 1538, 48 h, read-out: DIZ
Micrococcus luteus [36] = assay: Antibacterial activity against Micrococcus luteus MTCC 1538 assessed as growth inhibition at 750 ug/mL after 48 hr by agar diffusion method; assay type: functional; conditions: MTCC 1538, 48 h, read-out: DIZ
Escherichia coli [37] = assay: Antibacterial activity against Escherichia coli MTCC 1573 assessed as growth inhibition at 250 ug/mL after 48 hr by agar diffusion method; assay type: functional; conditions: MTCC 1573, 48 h, read-out: DIZ
Escherichia coli [38] = assay: Antibacterial activity against Escherichia coli MTCC 1573 assessed as growth inhibition at 100 ug/mL after 48 hr by agar diffusion method; assay type: functional; conditions: MTCC 1573, 48 h, read-out: DIZ
Pseudomonas aeruginosa [39] = assay: Antibacterial activity against Pseudomonas aeruginosa MTCC 424 assessed as growth inhibition at 500 ug/mL after 48 hr by agar diffusion method; assay type: functional; conditions: MTCC 424, 48 h, read-out: DIZ

Compound | MIC (Penicillium chrysogenum [1]) | MIC (Pseudomonas fluorescens [2]) | MIC (Escherichia coli [3]) | MIC (Bacillus pumilus [4]) | MIC (Bacillus subtilis [5]) | zone of inhibition at 1250 µg/mL (Bacillus subtilis [6]) | zone of inhibition at 1000 µg/mL (Bacillus subtilis [7]) | zone of inhibition at 750 µg/mL (Bacillus subtilis [8]) | zone of inhibition at 500 µg/mL (Bacillus subtilis [9]) | zone of inhibition at 1000 µg/mL (Penicillium chrysogenum [10]) | zone of inhibition at 750 µg/mL (Penicillium chrysogenum [11]) | zone of inhibition at 500 µg/mL (Penicillium chrysogenum [12]) | zone of inhibition at 250 µg/mL (Penicillium chrysogenum [13]) | growth inhibition (GI) (Penicillium chrysogenum [14]) | zone of inhibition at 1250 µg/mL (Aspergillus niger [15]) | zone of inhibition at 1000 µg/mL (Aspergillus niger [16]) | zone of inhibition at 1250 µg/mL (Pseudomonas fluorescens [18]) | zone of inhibition at 1000 µg/mL (Pseudomonas fluorescens [19]) | zone of inhibition at 750 µg/mL (Pseudomonas fluorescens [20]) | zone of inhibition at 500 µg/mL (Pseudomonas fluorescens [21]) | other results
O=C1CSC(c2ccccn2)N1c1nnc2c3ccccc3nc-2s1 (stereo not drawn) | 150 µg/mL (≈ 410 µM) | 50 µg/mL (≈ 137 µM) | 40 µg/mL (≈ 109 µM) | 50 µg/mL (≈ 137 µM) | 40 µg/mL (≈ 109 µM) | 18 mm | 15 mm | 13 mm | 12 mm | 15 mm | 13 mm | 12 mm | 9 mm | inactive | 17 mm | 15 mm | 20 mm | 18 mm | 15 mm | 13 mm | zone of inhibition at 250 µg/mL (Aspergillus niger [17]; MTCC 2546, 48 h, read-out: DIZ): 8 mm; zone of inhibition at 500 µg/mL (Micrococcus luteus [22]): 11 mm; zone of inhibition at 250 µg/mL (Micrococcus luteus [23]; MTCC 1538, 48 h, read-out: DIZ): 8 mm; growth inhibition (GI) (Micrococcus luteus [24]): inactive; zone of inhibition at 1250 µg/mL (Bacillus pumilus [25]): 21 mm; zone of inhibition at 500 µg/mL (Bacillus pumilus [26]): 15 mm; zone of inhibition at 250 µg/mL (Bacillus pumilus [27]): 10 mm; zone of inhibition at 1000 µg/mL (Staphylococcus aureus [28]): 12 mm; zone of inhibition at 750 µg/mL (Staphylococcus aureus [29]): 10 mm; zone of inhibition at 500 µg/mL (Staphylococcus aureus [30]): 9 mm; growth inhibition (GI) (Staphylococcus aureus [31]): inactive; zone of inhibition at 250 µg/mL (Pseudomonas aeruginosa [32]): 9 mm; zone of inhibition at 100 µg/mL (Pseudomonas aeruginosa [33]): 7 mm; zone of inhibition at 1250 µg/mL (Micrococcus luteus [34]): 17 mm; zone of inhibition at 1000 µg/mL (Micrococcus luteus [35]): 15 mm; zone of inhibition at 750 µg/mL (Micrococcus luteus [36]): 14 mm; zone of inhibition at 250 µg/mL (Escherichia coli [37]): 9 mm; zone of inhibition at 100 µg/mL (Escherichia coli [38]): 7 mm; zone of inhibition at 500 µg/mL (Pseudomonas aeruginosa [39]): 13 mm
O=C1CSC(c2cccc3ccccc23)N1c1nnc2c3ccccc3nc-2s1 (stereo not drawn) | 200 µg/mL (≈ 482 µM) | 40 µg/mL (≈ 96.5 µM) | 50 µg/mL (≈ 121 µM) | 20 µg/mL (≈ 48.2 µM) | 40 µg/mL (≈ 96.5 µM) | 20 mm | 17 mm | 15 mm | 13 mm | 12 mm | 10 mm | 9 mm | 8 mm | inactive | 19 mm | 15 mm | 22 mm | 19 mm | 16 mm | 14 mm | growth inhibition (GI) (Aspergillus niger [17]): inactive; zone of inhibition at 500 µg/mL (Micrococcus luteus [22]): 8 mm; growth inhibition (GI) (Micrococcus luteus [23]): inactive; growth inhibition (GI) (Micrococcus luteus [24]): inactive; zone of inhibition at 1250 µg/mL (Bacillus pumilus [25]): 26 mm; zone of inhibition at 500 µg/mL (Bacillus pumilus [26]): 11 mm; zone of inhibition at 250 µg/mL (Bacillus pumilus [27]): 8 mm; zone of inhibition at 1000 µg/mL (Staphylococcus aureus [28]): 14 mm; zone of inhibition at 750 µg/mL (Staphylococcus aureus [29]): 12 mm; zone of inhibition at 500 µg/mL (Staphylococcus aureus [30]): 10 mm; growth inhibition (GI) (Staphylococcus aureus [31]): inactive; zone of inhibition at 250 µg/mL (Pseudomonas aeruginosa [32]): 10 mm; zone of inhibition at 100 µg/mL (Pseudomonas aeruginosa [33]): 7 mm; zone of inhibition at 1250 µg/mL (Micrococcus luteus [34]): 16 mm; zone of inhibition at 1000 µg/mL (Micrococcus luteus [35]): 14 mm; zone of inhibition at 750 µg/mL (Micrococcus luteus [36]): 11 mm; zone of inhibition at 250 µg/mL (Escherichia coli [37]): 10 mm; zone of inhibition at 100 µg/mL (Escherichia coli [38]): 8 mm; zone of inhibition at 500 µg/mL (Pseudomonas aeruginosa [39]): 13 mm
